Where a name gives a salt, the structure may show the parent alone. Read-outs that look alike come from different tables or passages of the source.
Experiments:
JAK3 = target: T1, JAK3 (Homo sapiens, UniProt P52333); experiment: JAK kinase assay, JAK3 enzyme; format: biochemical
T1 sequence (P52333 1-1124): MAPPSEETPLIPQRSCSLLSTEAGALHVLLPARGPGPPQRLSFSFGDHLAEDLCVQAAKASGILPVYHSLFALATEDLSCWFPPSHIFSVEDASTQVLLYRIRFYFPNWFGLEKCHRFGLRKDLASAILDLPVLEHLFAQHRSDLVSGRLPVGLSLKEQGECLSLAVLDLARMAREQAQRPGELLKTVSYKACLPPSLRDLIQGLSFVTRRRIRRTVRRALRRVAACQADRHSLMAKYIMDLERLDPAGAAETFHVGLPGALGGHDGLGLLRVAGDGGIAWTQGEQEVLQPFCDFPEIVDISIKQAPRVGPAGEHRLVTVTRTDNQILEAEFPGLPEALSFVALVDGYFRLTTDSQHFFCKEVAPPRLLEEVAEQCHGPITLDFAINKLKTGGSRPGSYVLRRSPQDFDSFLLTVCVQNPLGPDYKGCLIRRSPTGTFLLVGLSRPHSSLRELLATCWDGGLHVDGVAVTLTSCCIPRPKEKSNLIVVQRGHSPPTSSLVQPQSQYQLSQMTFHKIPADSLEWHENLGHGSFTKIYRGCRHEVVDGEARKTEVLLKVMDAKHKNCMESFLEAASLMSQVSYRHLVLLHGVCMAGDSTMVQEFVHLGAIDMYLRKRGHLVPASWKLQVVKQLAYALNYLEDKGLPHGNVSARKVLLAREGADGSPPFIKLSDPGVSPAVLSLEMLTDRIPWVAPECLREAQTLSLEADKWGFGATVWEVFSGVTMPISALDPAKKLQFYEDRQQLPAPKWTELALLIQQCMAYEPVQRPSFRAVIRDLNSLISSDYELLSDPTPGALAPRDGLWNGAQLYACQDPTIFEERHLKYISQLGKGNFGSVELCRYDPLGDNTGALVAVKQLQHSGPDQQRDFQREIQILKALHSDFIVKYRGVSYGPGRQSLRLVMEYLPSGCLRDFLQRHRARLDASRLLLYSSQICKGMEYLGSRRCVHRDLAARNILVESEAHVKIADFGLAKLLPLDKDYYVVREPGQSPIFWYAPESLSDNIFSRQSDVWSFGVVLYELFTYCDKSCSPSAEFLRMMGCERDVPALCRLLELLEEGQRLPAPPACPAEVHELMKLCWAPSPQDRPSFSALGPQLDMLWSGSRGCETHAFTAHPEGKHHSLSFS

Rho Kinase = experiment: ROCK kinase inhibition assay (Rho Kinase Activity, isoform not given); format: biochemical; conditions: Table 15, mostly given as ranges
Method: All compounds were initially prepared as 10 mM stocks in anhydrous dimethylsulfoxide (DMSO). A 20 μl aliquot of the 10 mM solutions was transferred to individual wells in column 1 of a 96-well polypropylene microtiter plate (Corning #3363) and diluted with DMSO to give a final compound concentration of 4 mM. Test compounds were then serially diluted 1:5 in DMSO for an 11-point concentration response and further diluted in the assay buffer bringing all compound concentrations to a final range of 100 μM to […] in 2.5% DMSO. The assay was performed in white 96-well, flat-bottom, half-area, non-binding assay plate (Corning #3642) in assay buffer consisting of 20 mM HEPES (pH 7.5), 10 mM MgCl2*6H2O, 100 μM sodium orthovanadate, 0.05% CHAPS and 0.1% bovine serum albumin. A 10 μL aliquot of compound from each well of the intermediate dilution plate and 20 μL of a 2× substrate/enzyme solution containing acceptor substrate (800 nM RSK2 peptide […] (SEQ ID NO: 1)), ROCK2 enzyme (10 nM), or ROCK1 enzyme, and 1,4-Dithiothreitol (DTT, 2 uM) were added to all wells. The reaction was initiated by the addition of 10 μL of 4× stock solution ATP (2 μM). Reactions were thoroughly mixed manually, covered and allowed to incubate at room temperature for 75 min. Protein kinase activity was quantitated using Promega's KINASE-GLO™ luminescent Kinase Assay Kit according to the manufacturer's directions. ATP concentrations remaining in Test wells following the termination of the enzymatic reaction were compared against control wells containing equivalent amounts of DMSO containing no inhibitor (CTRL). […] Percent of Control (POC) values were determined for each concentration of compound tested according to the equation: POC=((Test well value−BKG)/(CTRL−BKG))*100
IC50 values were converted to K; […]

JAK2 = JAK2 (Homo sapiens, UniProt O60674); experiment: JAK kinase assay, JAK2 enzyme; format: biochemical;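 note: JAK2 kinase reaction run 75 min at room temperature, leftover ATP read by Kinase-Glo luminescence, 11-point dilution series in 2.5% DMSO, percent of inhibitor-free DMSO control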
JAK2, sequence (O60674 whole entry, species assumed): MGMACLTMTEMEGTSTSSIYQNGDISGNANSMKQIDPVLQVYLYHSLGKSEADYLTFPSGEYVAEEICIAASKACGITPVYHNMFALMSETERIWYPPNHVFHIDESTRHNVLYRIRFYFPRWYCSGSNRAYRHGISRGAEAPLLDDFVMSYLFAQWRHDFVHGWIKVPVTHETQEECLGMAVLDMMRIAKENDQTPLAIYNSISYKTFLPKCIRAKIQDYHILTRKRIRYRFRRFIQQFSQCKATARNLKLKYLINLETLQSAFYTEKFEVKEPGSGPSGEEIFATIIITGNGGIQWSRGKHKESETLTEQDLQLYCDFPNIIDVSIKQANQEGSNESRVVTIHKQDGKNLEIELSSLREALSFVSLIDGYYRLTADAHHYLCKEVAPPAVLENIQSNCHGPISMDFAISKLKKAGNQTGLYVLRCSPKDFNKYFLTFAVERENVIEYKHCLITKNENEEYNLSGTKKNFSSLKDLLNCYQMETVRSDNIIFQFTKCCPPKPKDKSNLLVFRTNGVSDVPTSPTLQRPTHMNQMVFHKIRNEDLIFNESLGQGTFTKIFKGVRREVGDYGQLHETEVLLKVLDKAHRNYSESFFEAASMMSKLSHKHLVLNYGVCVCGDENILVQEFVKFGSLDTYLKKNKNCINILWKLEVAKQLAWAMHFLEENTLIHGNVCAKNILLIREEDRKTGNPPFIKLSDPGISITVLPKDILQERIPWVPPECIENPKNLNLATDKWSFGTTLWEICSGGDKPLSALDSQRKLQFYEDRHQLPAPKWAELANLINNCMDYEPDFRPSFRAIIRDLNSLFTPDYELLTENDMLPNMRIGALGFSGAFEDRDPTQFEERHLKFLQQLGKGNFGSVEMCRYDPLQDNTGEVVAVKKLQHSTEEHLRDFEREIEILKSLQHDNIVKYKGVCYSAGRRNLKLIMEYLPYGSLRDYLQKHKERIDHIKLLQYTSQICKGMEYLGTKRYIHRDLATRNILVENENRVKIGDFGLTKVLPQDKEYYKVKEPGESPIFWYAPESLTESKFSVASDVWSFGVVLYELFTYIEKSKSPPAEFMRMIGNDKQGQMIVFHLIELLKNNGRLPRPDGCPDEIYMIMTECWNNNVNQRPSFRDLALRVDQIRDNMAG

ROCK2 = ROCK2 (Homo sapiens, UniProt O75116); experiment: biochemical
ROCK2, sequence (O75116 whole entry, species assumed): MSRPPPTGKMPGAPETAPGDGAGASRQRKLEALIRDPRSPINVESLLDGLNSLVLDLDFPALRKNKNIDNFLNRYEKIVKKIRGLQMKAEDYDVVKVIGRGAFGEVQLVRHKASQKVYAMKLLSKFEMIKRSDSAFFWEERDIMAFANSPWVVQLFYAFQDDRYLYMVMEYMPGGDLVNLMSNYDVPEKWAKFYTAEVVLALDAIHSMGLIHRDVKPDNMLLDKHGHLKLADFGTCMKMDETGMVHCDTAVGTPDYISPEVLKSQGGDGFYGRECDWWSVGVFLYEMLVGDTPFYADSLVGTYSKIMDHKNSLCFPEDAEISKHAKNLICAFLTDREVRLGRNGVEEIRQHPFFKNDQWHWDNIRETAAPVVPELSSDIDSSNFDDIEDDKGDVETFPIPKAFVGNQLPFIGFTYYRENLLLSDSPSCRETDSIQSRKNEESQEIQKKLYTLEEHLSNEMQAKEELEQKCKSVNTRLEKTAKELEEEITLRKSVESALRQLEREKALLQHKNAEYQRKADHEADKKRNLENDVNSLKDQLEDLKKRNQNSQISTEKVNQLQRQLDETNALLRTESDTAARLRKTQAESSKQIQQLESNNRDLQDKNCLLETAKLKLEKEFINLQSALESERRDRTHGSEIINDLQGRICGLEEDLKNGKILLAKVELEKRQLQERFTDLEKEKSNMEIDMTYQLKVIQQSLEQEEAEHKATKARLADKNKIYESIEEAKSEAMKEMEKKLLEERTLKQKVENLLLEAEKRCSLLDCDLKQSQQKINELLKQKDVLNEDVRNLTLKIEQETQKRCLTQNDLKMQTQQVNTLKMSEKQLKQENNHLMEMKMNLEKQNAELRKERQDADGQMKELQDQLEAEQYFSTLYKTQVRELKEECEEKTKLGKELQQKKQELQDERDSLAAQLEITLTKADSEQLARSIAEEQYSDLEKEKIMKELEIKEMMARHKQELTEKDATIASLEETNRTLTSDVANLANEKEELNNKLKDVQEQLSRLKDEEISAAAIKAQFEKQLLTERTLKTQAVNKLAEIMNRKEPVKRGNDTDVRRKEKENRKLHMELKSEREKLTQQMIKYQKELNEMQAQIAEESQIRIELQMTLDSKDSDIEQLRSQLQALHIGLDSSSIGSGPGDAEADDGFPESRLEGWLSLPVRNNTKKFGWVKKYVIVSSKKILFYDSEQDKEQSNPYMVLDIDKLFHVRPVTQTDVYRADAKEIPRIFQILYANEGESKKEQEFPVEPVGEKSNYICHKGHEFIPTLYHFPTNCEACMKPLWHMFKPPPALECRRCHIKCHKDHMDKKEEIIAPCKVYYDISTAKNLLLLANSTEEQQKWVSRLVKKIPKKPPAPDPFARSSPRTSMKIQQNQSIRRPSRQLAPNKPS

ROCK1 = ROCK1 (Homo sapiens, UniProt Q13464); experiment: ROCK kinase inhibition assay, ROCK1 enzyme; format: biochemical;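 note: kinase reaction with 0.5 µM final ATP, 75 min at room temperature, remaining ATP read by luminescence, percent of DMSO-only control minus background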
ROCK1, sequence (Q13464 whole entry, species assumed): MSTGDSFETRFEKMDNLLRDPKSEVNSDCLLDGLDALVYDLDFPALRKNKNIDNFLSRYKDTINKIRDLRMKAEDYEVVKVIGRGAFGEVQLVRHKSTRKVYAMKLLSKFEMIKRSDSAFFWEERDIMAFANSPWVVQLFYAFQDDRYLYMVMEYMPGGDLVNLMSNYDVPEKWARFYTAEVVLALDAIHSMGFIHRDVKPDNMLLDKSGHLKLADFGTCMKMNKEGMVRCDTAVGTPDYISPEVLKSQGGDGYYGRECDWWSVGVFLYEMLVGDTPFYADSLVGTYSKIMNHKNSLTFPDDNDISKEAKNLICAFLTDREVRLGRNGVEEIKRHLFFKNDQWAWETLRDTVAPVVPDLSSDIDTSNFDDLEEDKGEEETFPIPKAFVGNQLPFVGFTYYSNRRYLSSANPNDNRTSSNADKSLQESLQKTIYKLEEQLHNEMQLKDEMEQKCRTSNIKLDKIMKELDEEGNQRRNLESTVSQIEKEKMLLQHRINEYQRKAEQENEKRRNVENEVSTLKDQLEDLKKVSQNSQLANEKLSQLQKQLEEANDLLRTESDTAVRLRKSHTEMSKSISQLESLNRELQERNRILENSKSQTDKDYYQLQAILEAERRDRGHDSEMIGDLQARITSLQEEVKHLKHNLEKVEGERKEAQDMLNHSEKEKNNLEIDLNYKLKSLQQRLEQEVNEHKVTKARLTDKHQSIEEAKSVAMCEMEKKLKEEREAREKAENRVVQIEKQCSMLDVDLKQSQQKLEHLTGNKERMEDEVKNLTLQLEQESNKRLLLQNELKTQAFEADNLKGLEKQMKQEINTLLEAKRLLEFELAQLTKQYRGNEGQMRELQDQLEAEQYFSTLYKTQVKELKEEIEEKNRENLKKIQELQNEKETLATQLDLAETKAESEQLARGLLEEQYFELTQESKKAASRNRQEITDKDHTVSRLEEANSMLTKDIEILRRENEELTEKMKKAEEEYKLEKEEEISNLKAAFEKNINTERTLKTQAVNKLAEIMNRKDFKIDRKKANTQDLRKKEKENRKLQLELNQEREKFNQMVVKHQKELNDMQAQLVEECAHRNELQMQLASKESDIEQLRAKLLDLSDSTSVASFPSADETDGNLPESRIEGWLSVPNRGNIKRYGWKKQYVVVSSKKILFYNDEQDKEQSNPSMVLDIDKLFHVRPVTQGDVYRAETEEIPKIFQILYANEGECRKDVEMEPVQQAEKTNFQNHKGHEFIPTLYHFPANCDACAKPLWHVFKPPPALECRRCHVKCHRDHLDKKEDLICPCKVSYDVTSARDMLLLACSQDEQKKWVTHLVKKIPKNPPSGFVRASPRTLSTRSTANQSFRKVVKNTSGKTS

[1] = system: Porcine Trabecular Meshwork cells (PTM); experiment: PTM-HTM assay, actin fiber length in PTM cells; format: cell-based; conditions: Sus scrofa, read-out: PTM
Method: Porcine Trabecular Meshwork cells (PTM) were isolated from freshly obtained enucleated porcine eyes. Immortalized Human Trabecular Meshwork cells (TM-1) were obtained through a kind gift from Donna Peters in the Department of Ophthalmology and Visual Sciences at the University of Wisconsin. Cells were plated onto fibronectin coated glass-bottom 96-well plates and allowed to attach overnight. Media was removed and replaced with test compound in media with 1% fetal bovine serum and incubated for various times. After incubation, cells were formaldehyde fixed, triton solubilized, and stained. PTM cells were stained with Alexa Fluor®488 phalloidin (F-actin) and Hoechst 33342 (nuclei). TM-1 cells were stained with anti-paxillin followed by Alexa Fluor®488 goat-anti-mouse IgG (focal adhesions) and Hoechst 33342 (nuclei). All staining reagents were obtained through Invitrogen. Images were collected on an INCell 2200 imager with a 20× objective. The actin fiber length and total area of focal adhesions were analyzed using custom algorithms developed in the INCell Developer Toolbox, v1.9.3. Data collected were converted to percent of control (untreated cells). Curves were fit to data in GraphPad Prizm using sigmoidal dose-response and constraining top and bottom to 100% and 0%, respectively.

## O=C(Nc1ccc2cncc(Cl)c2c1)[C@@H]1C[C@H]1c1ccc(S(=O)(=O)NC[C@@H]2CCCNC2)cc1 (relative stereo) [(rel)-(1R,2R)-N-(4-chloroisoquinolin-6-yl)-2-(4-(N-(((R)-piperidin-3-yl)methyl)sulfamoyl)phenyl)cyclopropane-1-carboxamide dihydrochloride]
JAK3; Table 17, read-out: JAK3
  Ki: 160 nM

## O=C(Nc1ccc2cnccc2c1)[C@@H]1C[C@H]1c1ccc(S(=O)(=O)Nc2ccccn2)cc1 (single isomer, unassigned) [Example E267]
JAK3; Table 16, read-out: JAK3
  Ki: 5.8 nM

## O=C(Nc1ccc2cncc(Cl)c2c1)[C@@H]1C[C@H]1c1ccc(S(=O)(=O)NC[C@@H]2CCCNC2)cc1 [Example E274]
JAK3; Table 16, read-out: JAK3
  Ki: 160 nM

## O=C(NCc1ccccn1)c1ccc(C2CC(=O)N(c3ccc4cnccc4c3)C2)cc1 (centres unmarked) [Example E233]
Rho Kinase
  Ki: 4350 to 8400 nM
JAK2; Table 15, in brackets in the activity cell, read-out: JAK2 activity
  Ki: 5800 to 13500 nM
JAK3; Table 15, in brackets in the activity cell, read-out: JAK3 activity
  Ki: 3400 to 3800 nM

## O=C(Nc1ccc2cnccc2c1)[C@@H]1C[C@H]1c1ccc(I)cc1 (relative stereo) [drawing 670, (rel)-(1R,2R)-2-(4-iodophenyl)-N-(isoquinolin-6-yl)cyclopropane-1-carboxamide]
ROCK2; ROCK2, Table 17
  Ki: 175 nM
ROCK1; ROCK1, Table 17
  Ki: 270 nM
JAK2; Table 17, read-out: JAK2
  Ki: 650 nM

## O=C(Nc1ccc2cnccc2c1)[C@@H]1C[C@H]1c1ccc(S(=O)(=O)NC[C@@H]2CCCNC2)cc1 (relative stereo) [(rel)-(1R,2R)-N-(isoquinolin-6-yl)-2-(4-(N-(((R)-piperidin-3-yl)methyl)sulfamoyl)phenyl) cyclopropane-1-carboxamide dihydrochloride]
ROCK2; ROCK2, Table 17
  Ki: 4 nM
ROCK1; ROCK1, Table 17
  Ki: 4 nM
JAK3; Table 17, read-out: JAK3
  Ki: 1140 nM

## O=C(Nc1ccc2cncc(Cl)c2c1)[C@@H]1C[C@H]1c1ccc(S(=O)(=O)NC[C@@H]2CCCNC2)cc1 [drawing 666]
JAK3; Table 17, read-out: JAK3
  Ki: 160 nM

## O=C(Nc1ccc2cnccc2c1)[C@@H]1C[C@H]1c1ccc(F)c(S(=O)(=O)Nc2ccccn2)c1 [drawing 673]
ROCK2; ROCK2, Table 17
  Ki: 12.5 nM
ROCK1; ROCK1, Table 17
  Ki: 15 nM
JAK2; Table 17, read-out: JAK2
  Ki: 1400 nM
JAK3; Table 17, read-out: JAK3
  Ki: 1060 nM

## O=C(Nc1ccc2cnccc2c1)[C@@H]1C[C@H]1c1ccc(S(=O)(=O)Nc2ccccn2)cc1 [(1R,2R)-N-(isoquinolin-6-yl)-2-(4-(N-(pyridin-2-yl)sulfamoyl)phenyl) cyclopropane-1-carboxamide]
JAK3; Table 17, read-out: JAK3
  Ki: 4.3 nM
[1]
  IC50: 61 nM

## O=C(Nc1ccc2cnccc2c1)[C@@H]1C[C@H]1c1ccc(S(=O)(=O)NC[C@H]2CCCNC2)cc1 [Example E272]
ROCK2; ROCK2, Table 16
  Ki: 5 nM
ROCK1; ROCK1, Table 16
  Ki: 5 nM

## O=C(Nc1ccc2cnccc2c1)[C@@H]1C[C@H]1c1ccc(S(=O)(=O)NC[C@@H]2CCCNC2)cc1 [Example E273]
ROCK2; ROCK2, Table 16
  Ki: 4 nM
ROCK1; ROCK1, Table 16
  Ki: 4 nM
JAK3; Table 16, read-out: JAK3
  Ki: 1140 nM

## O=C(Nc1ccc2cnccc2c1)[C@@H]1C[C@H]1c1ccc(S(=O)(=O)NC[C@H]2CCCNC2)cc1 (relative stereo) [(rel)-(1R,2R)-N-(isoquinolin-6-yl)-2-(4-(N-(((S)-piperidin-3-yl)methyl)sulfamoyl)phenyl) cyclopropane-1-carboxamide dihydrochloride]
ROCK2; ROCK2, Table 17
  Ki: 5 nM
ROCK1; ROCK1, Table 17
  Ki: 5 nM

## O=C(Nc1ccc2cnccc2c1)[C@@H]1C[C@H]1c1ccc(S(=O)(=O)Nc2ccccn2)cc1 (single isomer, unassigned) [Example E266]
ROCK1; ROCK1, Table 16
  Ki: 9 nM
JAK3; Table 16, read-out: JAK3
  Ki: 12 nM

## O=C(Nc1ccc2cnccc2c1)[C@@H]1C[C@H]1c1ccc(S(=O)(=O)Nc2ccccn2)cc1 (racemic)
JAK3; Table 17, read-out: JAK3
  Ki: 12 nM

## O=C(Nc1ccc2cnccc2c1)[C@@H]1C[C@H]1c1ccc(I)cc1 [Example E277]
ROCK2; ROCK2, Table 16
  Ki: 175 nM
ROCK1; ROCK1, Table 16
  Ki: 270 nM
JAK2; Table 16, read-out: JAK2
  Ki: 650 nM

## O=C(Nc1ccc2cnccc2c1)[C@@H]1C[C@H]1c1ccc(S(=O)(=O)NCC2CCNCC2)cc1 [Example E271]
ROCK2; ROCK2, Table 16
  Ki: 8 nM
ROCK1; ROCK1, Table 16
  Ki: 9 nM

## O=C(Nc1ccc2cnccc2c1)[C@@H]1C[C@H]1c1ccc(S(=O)(=O)Nc2ccccc2)cc1 (racemic) [(rel)-(1R,2R)-N-(isoquinolin-6-yl)-2-(4-(N-phenylsulfamoyl)phenyl)cyclopropane-1-carboxamide]
ROCK2; ROCK2, Table 17
  Ki: 75 nM
ROCK1; ROCK1, Table 17
  Ki: 154 nM

## O=C(Nc1ccc2cnccc2c1)[C@@H]1C[C@H]1c1ccc(S(=O)(=O)NCC2CCNCC2)cc1 (relative stereo) [drawing 663, (rel)-(1R,2R)-N-(isoquinolin-6-yl)-2-(4-(N-(piperidin-4-ylmethyl)sulfamoyl)phenyl) cyclopropane-1-carboxamide dihydrochloride]
ROCK2; ROCK2, Table 17
  Ki: 8 nM
ROCK1; ROCK1, Table 17
  Ki: 9 nM

## O=C(Nc1ccc2cnccc2c1)[C@@H]1C[C@H]1c1ccc(F)c(S(=O)(=O)Nc2ccccc2)c1 [Example E281]
ROCK2; ROCK2, Table 16
  Ki: 240 nM
ROCK1; ROCK1, Table 16
  Ki: 150 nM
JAK2; Table 16, read-out: JAK2
  Ki: 3000 nM
JAK3; Table 16, read-out: JAK3
  Ki: 7500 nM

## O=C(Nc1ccc2cnccc2c1)[C@@H]1C[C@H]1c1ccc(S(=O)(=O)NC2CCNCC2)cc1 [Example E275]
ROCK2; ROCK2, Table 16
  Ki: 7 nM
ROCK1; ROCK1, Table 16
  Ki: 8.2 nM

## O=C(Nc1ccc2cnccc2c1)[C@@H]1C[C@H]1c1ccc(F)c(S(=O)(=O)Nc2ccccc2)c1 [drawing 674]
ROCK2; ROCK2, Table 17
  Ki: 240 nM
ROCK1; ROCK1, Table 17
  Ki: 150 nM
JAK2; Table 17, read-out: JAK2
  Ki: 3000 nM
JAK3; Table 17, read-out: JAK3
  Ki: 7500 nM

## O=C(Nc1ccc2cnccc2c1)[C@@H]1C[C@H]1c1ccc(S(=O)(=O)NCc2cccnc2)cc1 [Example E269]
ROCK2; ROCK2, Table 16
  Ki: 9 nM
ROCK1; ROCK1, Table 16
  Ki: 25 nM

## O=C(Nc1ccc2cnccc2c1)[C@@H]1C[C@H]1c1ccc(F)c(S(=O)(=O)Nc2ccccn2)c1 [Example E280]
ROCK2; ROCK2, Table 16
  Ki: 12.5 nM
ROCK1; ROCK1, Table 16
  Ki: 15 nM
JAK2; Table 16, read-out: JAK2
  Ki: 1400 nM
JAK3; Table 16, read-out: JAK3
  Ki: 1060 nM

## O=C(Nc1ccc2cnccc2c1)[C@@H]1C[C@H]1c1ccc(S(=O)(=O)Nc2cccnc2)cc1 [drawing 658]
ROCK2; ROCK2, Table 17
  Ki: 24 nM
ROCK1; ROCK1, Table 17
  Ki: 85 nM

From patent US10858339B2, “Aryl cyclopropyl-amino-isoquinolinyl amide compounds” (priority 2017, dated 2020)
